These results are taken from patent US20260053834A1, “COVALENT MODIFIERS OF AKT1 AND USES THEREOF” (Terremoto Biosciences, Inc., priority 2023, published 2026).

Experiment [1] has as its system LAPC4 prostate cancer cells, which express the AKT1 E17K allele. As to the kind of experiment: Antiproliferative effects in LAPC4 cells (CellTiter Glo, 72 h). It is filed as cell-based. The settings on record: Homo sapiens, LAPC4, 72 h, read-out: LAPC4 proliferation IC50: GeoMean IC50. Here is the method:
Antiproliferative effects in LAPC4 cells. LAPC4 prostate cancer cells (Klein, K. A. et al. Nat Med 1997, 3, 402-408), which express the AKT1 E17K allele, were grown in IMDM media (Hyclone) supplemented with 12% FBS+1% P/S. To assess compound effects on growth, 1,000 cells/well were seeded in 384 well assay plates, incubated with compound dilutions dissolved in DMSO. After 72 h, intracellular ATP content was assessed with CellTiter Glo reagent (Promega) according to the manufacturer's instructions. IC50 values were calculated by fitting luminescence values to a log(inhibitor) vs. response Hill equation.

The target in another experiment is T1, AKT1 E17K (Homo sapiens, UniProt P31749, E17K).
T1 construct: expressed in transfected cells; host or cells: HEK293
T1 sequence (P31749 whole entry E17K): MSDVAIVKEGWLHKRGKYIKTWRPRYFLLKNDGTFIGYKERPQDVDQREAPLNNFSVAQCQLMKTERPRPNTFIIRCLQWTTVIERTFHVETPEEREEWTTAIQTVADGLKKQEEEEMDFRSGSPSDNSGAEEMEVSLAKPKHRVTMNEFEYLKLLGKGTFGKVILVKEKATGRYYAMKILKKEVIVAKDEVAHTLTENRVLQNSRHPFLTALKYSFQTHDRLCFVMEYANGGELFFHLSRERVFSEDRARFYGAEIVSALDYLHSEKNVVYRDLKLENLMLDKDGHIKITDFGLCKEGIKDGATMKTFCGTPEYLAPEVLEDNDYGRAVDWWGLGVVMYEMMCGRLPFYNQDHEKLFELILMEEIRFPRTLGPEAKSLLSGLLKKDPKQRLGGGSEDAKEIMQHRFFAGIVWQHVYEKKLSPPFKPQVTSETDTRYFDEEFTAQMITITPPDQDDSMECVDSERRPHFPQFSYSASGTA
Put plainly: Live cell target engagement by NanoBRET competitive probe displacement, AKT1 E17K. Type of experiment: binding. The following applies: transfected HEK293 cells, 2 h at 37° C., read-out: AKT1 E17K IC50: GeoMean IC50. Here is the method:
(§1) Determining live cell AKT1 E17K, AKT1 WT, and AKT2 target engagement by NanoBRET competitive probe displacement. Live cell target engagement assays were performed as described (Vasta, J. D. et al. Cell Chem Biol 2018, 25(11), 206-214). Briefly, HEK293 cells were transfected with plasmids encoding kinase-NanoLuciferase fusion proteins overnight. Cells were then treated with serial dilutions of compound and an ˜EC50 concentration of fluorescently-tagged ATP-competitive tracer (Promega). After incubation for 2 h at 37° C., luciferase substrate and extracellular luciferase inhibitor were added to all wells, and luminescent intensity at 460 nm and 600 nm were measured on a multimode plate-reader. The ratio of E600/E460 was calculated to give the tracer engagement signal (BRET). IC50 values were calculated by fitting BRET values to a log(inhibitor) vs. response Hill equation.
(In general: BRET reads energy transfer from a luciferase to a nearby fluorophore.)

The next experiment deals with T2, AKT1 WT (Homo sapiens, UniProt P31749).
T2 construct: expressed in transfected cells; host or cells: HEK293
T2 sequence (P31749 whole entry): as the sequence (P31749 whole entry E17K) above, with K17E counted along it
As to the kind of experiment: Live cell target engagement by NanoBRET competitive probe displacement, AKT1 WT. Type of experiment: binding. The following applies: transfected HEK293 cells, 2 h at 37° C., read-out: AKT1 WT IC50: GeoMean IC50. On the procedure:
as §1

In another experiment the target is T3, AKT2 (Homo sapiens, UniProt P31751).
T3 construct: expressed in transfected cells; host or cells: HEK293
T3 sequence (P31751 whole entry): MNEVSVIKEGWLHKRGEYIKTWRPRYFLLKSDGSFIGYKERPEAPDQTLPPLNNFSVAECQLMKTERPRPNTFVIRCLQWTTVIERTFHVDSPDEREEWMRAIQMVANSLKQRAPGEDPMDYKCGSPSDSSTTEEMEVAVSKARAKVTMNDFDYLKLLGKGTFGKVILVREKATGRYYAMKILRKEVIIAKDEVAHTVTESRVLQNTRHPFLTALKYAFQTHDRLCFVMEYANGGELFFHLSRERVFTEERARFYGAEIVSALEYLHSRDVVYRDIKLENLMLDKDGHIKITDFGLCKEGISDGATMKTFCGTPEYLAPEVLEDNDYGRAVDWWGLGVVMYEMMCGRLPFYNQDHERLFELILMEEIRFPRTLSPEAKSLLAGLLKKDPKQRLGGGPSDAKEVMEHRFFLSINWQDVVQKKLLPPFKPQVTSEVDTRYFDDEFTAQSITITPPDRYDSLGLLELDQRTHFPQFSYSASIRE
Put plainly: Live cell target engagement by NanoBRET competitive probe displacement, AKT2. Type of experiment: binding. The settings on record: transfected HEK293 cells, 2 h at 37° C., read-out: AKT2 IC50: GeoMean IC50. On the procedure: as §1

As for `Nc1ncccc1-c1nc2ccc(-c3ccncc3)nc2n1-c1ccc2c(c1)CC[C@@H]2NC(=O)c1ccc(O)c(C=O)c1` [Example 24, N-[(1S)-5-[2-(2-aminopyridin-3-yl)-5-(pyridin-4-yl)imidazo[4,5-b]pyridin-3-yl]-2,3-dihydro-1H-inden-1-yl]-3-formyl-4-hydroxybenzamide], the IC50 in experiment [1] was in the range of 10 to 100 nM; on AKT1 E17K it was 10 to 100 nM; at AKT1 WT it was 10 to 100 nM; at AKT2, 100 to 2000 nM.
Turning to `Nc1ncccc1-c1nc2ccc(-c3ccccn3)nc2n1-c1ccc2c(c1)CC[C@@H]2NC(=O)c1ccc(O)c(C=O)c1` [Example 25, (S)—N-(5-(2-(2-aminopyridin-3-yl)-5-(pyridin-2-yl)-3H-imidazo[4,5-b]pyridin-3-yl)-2,3-dihydro-1H-inden-1-yl)-3-formyl-4-hydroxybenzamide], the IC50 in experiment [1] is 10 to 100 nM; on AKT1 E17K, 10 to 100 nM; at AKT1 WT, 10 to 100 nM; at AKT2, 100 to 2000 nM.
`Nc1ncccc1-c1nc2ccc(-c3cccc(F)c3)nc2n1-c1ccc2c(c1)CC[C@@H]2NC(=O)c1ccc(O)c(C=O)c1` [Example 26, N-[(1S)-5-[2-(2-aminopyridin-3-yl)-5-(3-fluorophenyl)imidazo[4,5-b]pyridin-3-yl]-2,3-dihydro-1H-inden-1-yl]-3-formyl-4-hydroxybenzamide]: the IC50 lay in the range of 100 to 2000 nM in experiment [1], 10 to 100 nM on AKT1 E17K, 100 to 2000 nM on AKT1 WT and 100 to 2000 nM at AKT2.
On to `Nc1ncccc1-c1nc2ccc(-c3ccccc3)nc2n1-c1ccc2c(c1)CCC2C(=O)Nc1ccc(O)c(C=O)c1` (centres unmarked) [Example 27, 5-[2-(2-aminopyridin-3-yl)-5-phenylimidazo[4,5-b]pyridin-3-yl]-N-(3-formyl-4-hydroxyphenyl)-2,3-dihydro-1H-indene-1-carboxamide], for which the IC50 was 100 to 2000 nM in experiment [1], 10 to 100 nM on AKT1 E17K, 100 to 2000 nM at AKT1 WT and 100 to 2000 nM on AKT2.
On to `Cn1cc(-c2ccc3nc(-c4cccnc4N)n(-c4ccc5c(c4)CC[C@@H]5NC(=O)c4ccc(O)c(C=O)c4)c3n2)cn1` [Example 28, (S)—N-(5-(2-(2-aminopyridin-3-yl)-5-(1-methyl-1H-pyrazol-4-yl)-3H-imidazo[4,5-b]pyridin-3-yl)-2,3-dihydro-1H-inden-1-yl)-3-formyl-4-hydroxybenzamide], for which the IC50 in experiment [1] lay in the range of 10 to 100 nM; on AKT1 E17K it was 10 to 100 nM; at AKT1 WT, 10 to 100 nM; at AKT2, 100 to 2000 nM.
Regarding `Nc1ncccc1-c1nc2ccc(-c3cnccn3)nc2n1-c1ccc2c(c1)CC[C@@H]2NC(=O)c1ccc(O)c(C=O)c1` [Example 29, N-[(1S)-5-[2-(2-aminopyridin-3-yl)-5-(pyrazin-2-yl)imidazo[4,5-b]pyridin-3-yl]-2,3-dihydro-1H-inden-1-yl]-3-formyl-4-hydroxybenzamide], the IC50 in experiment [1] was 10 to 100 nM; at AKT1 E17K it was under 10 nM; at AKT1 WT, 10 to 100 nM; on AKT2 it was 100 to 2000 nM.
Consider `Nc1ncccc1-c1nc2ccc(-c3ccccc3)nc2n1-c1ccc2c(c1)CC[C@@H]2NC(=O)c1ccc(C=O)c(O)c1` [Example 30, N-[(1S)-5-[2-(2-aminopyridin-3-yl)-5-phenylimidazo[4,5-b]pyridin-3-yl]-2,3-dihydro-1H-inden-1-yl]-4-formyl-3-hydroxybenzamide], for which the IC50 in experiment [1] was at least 2000 nM; on AKT1 E17K, 100 to 2000 nM; at AKT1 WT it was 100 to 2000 nM; at AKT2 it was 100 to 2000 nM.
For `Nc1ncccc1-c1nc2ccc(-c3ccccc3)nc2n1-c1ccc2c(c1)CC[C@@H]2NC(=O)c1ccc(C=O)c(O)c1F` [Example 31, N-[(1S)-5-[2-(2-aminopyridin-3-yl)-5-phenylimidazo[4,5-b]pyridin-3-yl]-2,3-dihydro-1H-inden-1-yl]-2-fluoro-4-formyl-3-hydroxybenzamide], the IC50 in experiment [1] fell in the range of 100 to 2000 nM; on AKT1 E17K, 10 to 100 nM; on AKT1 WT, 10 to 100 nM; on AKT2, 100 to 2000 nM.
Turning to `Nc1ncccc1-c1nc2ccc(OC3CC3)nc2n1-c1ccc2c(c1)CC[C@@H]2NC(=O)c1ccc(O)c(C=O)c1` [Example 32, N-[(1S)-5-[2-(2-aminopyridin-3-yl)-5-cyclopropoxyimidazo[4,5-b]pyridin-3-yl]-2,3-dihydro-1H-inden-1-yl]-3-formyl-4-hydroxybenzamide], the IC50 in experiment [1] is 100 to 2000 nM; at AKT1 E17K, 10 to 100 nM; on AKT1 WT it was 100 to 2000 nM; on AKT2, at least 2000 nM.
`Nc1ncccc1-c1nc2ccc(-n3cccn3)nc2n1-c1ccc2c(c1)CC[C@@H]2NC(=O)c1ccc(O)c(C=O)c1` [Example 33, (S)—N-(5-(2-(2-aminopyridin-3-yl)-5-(1H-pyrazol-1-yl)-3H-imidazo[4,5-b]pyridin-3-yl)-2,3-dihydro-1H-inden-1-yl)-3-formyl-4-hydroxybenzamide]: the IC50 in experiment [1] is 10 to 100 nM; at AKT1 E17K, 10 to 100 nM; at AKT1 WT, 10 to 100 nM; on AKT2, 100 to 2000 nM.
For `Nc1ncccc1-c1nc2ccc(-c3ccccc3)nc2n1-c1ccc2c(c1)CC[C@@H]2NC(=O)c1cc(C=O)c(O)cc1Cl` [Example 34, N-[(1S)-5-[2-(2-aminopyridin-3-yl)-5-phenylimidazo[4,5-b]pyridin-3-yl]-2,3-dihydro-1H-inden-1-yl]-2-chloro-5-formyl-4-hydroxybenzamide], the IC50 in experiment [1] fell in the range of 100 to 2000 nM; at AKT1 E17K it was 10 to 100 nM; at AKT1 WT, 10 to 100 nM; at AKT2 it was 100 to 2000 nM.
Turning to `Nc1ncccc1-c1nc2ccc(-c3ccccc3)nc2n1-c1ccc2c(c1)CC[C@@H]2NC(=O)c1cc(C=O)c2[nH]ncc2c1` [Example 35, N-[(1S)-5-[2-(2-aminopyridin-3-yl)-5-phenylimidazo[4,5-b]pyridin-3-yl]-2,3-dihydro-1H-inden-1-yl]-7-formyl-1H-indazole-5-carboxamide], the IC50 in experiment [1] was under 10 nM; at AKT1 E17K it was under 10 nM; at AKT1 WT, 10 to 100 nM; on AKT2, 10 to 100 nM.
For `COc1cc(C(=O)N[C@H]2CCc3cc(-n4c(-c5cccnc5N)nc5ccc(-c6ccccc6)nc54)ccc32)cc(C=O)c1O` [Example 36, N-[(1S)-5-[2-(2-aminopyridin-3-yl)-5-phenylimidazo[4,5-b]pyridin-3-yl]-2,3-dihydro-1H-inden-1-yl]-3-formyl-4-hydroxy-5-methoxybenzamide], the IC50 in experiment [1] is 100 to 2000 nM; on AKT1 E17K, 10 to 100 nM; on AKT1 WT, 10 to 100 nM; on AKT2 it was 100 to 2000 nM.
For the compound `Nc1ncccc1-c1nc2ccc(Br)nc2n1-c1ccc2c(c1)CC[C@@H]2NC(=O)c1ccc(O)c(C=O)c1` [Example 37, (S)—N-(5-(2-(2-aminopyridin-3-yl)-5-bromo-3H-imidazo[4,5-b]pyridin-3-yl)-2,3-dihydro-1H-inden-1-yl)-3-formyl-4-hydroxybenzamide], the IC50 in experiment [1] was 100 to 2000 nM; at AKT1 E17K it was 10 to 100 nM; on AKT1 WT it was 100 to 2000 nM; at AKT2 it was at least 2000 nM.
As to `CN1CCN(c2ccc3nc(-c4cccnc4N)n(-c4ccc5c(c4)CC[C@@H]5NC(=O)c4ccc(O)c(C=O)c4)c3n2)CC1` [Example 38, (S)—N-(5-(2-(2-aminopyridin-3-yl)-5-(4-methylpiperazin-1-yl)-3H-imidazo[4,5-b]pyridin-3-yl)-2,3-dihydro-1H-inden-1-yl)-3-formyl-4-hydroxybenzamide], the IC50 is 100 to 2000 nM in experiment [1], 10 to 100 nM at AKT1 E17K, 100 to 2000 nM at AKT1 WT and at least 2000 nM at AKT2.
With `Nc1ncccc1-c1nc2ccc(-c3ccccc3)nc2n1-c1ccc2c(c1)CC[C@@H]2Nc1nccc2c(C=O)c(O)ccc12` [Example 39, 1-{[(1S)-5-[2-(2-aminopyridin-3-yl)-5-phenylimidazo[4,5-b]pyridin-3-yl]-2,3-dihydro-1H-inden-1-yl]amino}-6-hydroxyisoquinoline-5-carbaldehyde], the IC50 (in experiment [1]; at AKT1 E17K; at AKT1 WT; on AKT2) was 100 to 2000 nM in each case.
As to `Nc1ncccc1-c1nc2ccc(-c3ccccc3)nc2n1-c1ccc2c(c1)CC[C@@H]2NC(=O)c1cc(C=O)c(O)cn1` [Example 40, N-[(1S)-5-[2-(2-aminopyridin-3-yl)-5-phenylimidazo[4,5-b]pyridin-3-yl]-2,3-dihydro-1H-inden-1-yl]-4-formyl-5-hydroxypyridine-2-carboxamide], the IC50 in experiment [1] was at least 2000 nM; on AKT1 E17K, at least 2000 nM; at AKT1 WT it was 100 to 2000 nM; on AKT2 it was at least 2000 nM.
